# Laboratory results: ChEMBL document CHEMBL1136837, “Unified QSAR approach to antimicrobials. 4. Multi-target QSAR modeling and comparative multi-distance study of the giant components of antiviral drug-drug complex networks” (Bioorg Med Chem, 2009)
# Legend:
# Human betaherpesvirus 5 = test: Antiviral activity against Human cytomegalovirus; assay type: functional, organism-based; conditions: Human betaherpesvirus 5
# Human alphaherpesvirus 1 = test: Antiviral activity against Herpes simplex virus 1; assay type: functional, organism-based
# [1] = test system: Human immunodeficiency virus 2; test: Antiviral activity against HIV2; assay type: functional, organism-based
# Human alphaherpesvirus 2 = test: Antiviral activity against Herpes simplex virus 2; assay type: functional, organism-based
# Vaccinia virus = test: Antiviral activity against Vaccinia virus; assay type: functional, organism-based, Orthopoxvirus vaccinia; conditions: Orthopoxvirus vaccinia
# Human alphaherpesvirus 3 = test: Antiviral activity against Varicella zoster virus; assay type: functional, organism-based
# [2] = test system: Human immunodeficiency virus 1; test: Antiviral activity against HIV1; assay type: functional, organism-based
# Cowpox virus = test: Antiviral activity against Cowpox virus; assay type: functional, organism-based
# Human rhinovirus sp. = test: Antiviral activity against Human rhinovirus; assay type: functional, organism-based
Compound,IC50 [1] [nM],IC50 (Vaccinia virus) [nM],IC50 [2] [nM],IC50 (Cowpox virus) [nM],IC50 (Human rhinovirus sp.) [nM],further results
Nc1nc(N)c(Cc2ccccc2)c(OCCOCP(=O)(O)O)n1,0.3,1.2,0.3,,,IC50 (Human betaherpesvirus 5): 0.15 nM; IC50 (Human alphaherpesvirus 1; Human alphaherpesvirus 1): 1.2 nM; IC50 (Human alphaherpesvirus 2; Human alphaherpesvirus 2): 0.66 nM; IC50 (Human alphaherpesvirus 3): 0.15 nM
N#CCc1c(N)nc(N)nc1OCCOCP(=O)(O)O,0.3,1.2,0.3,,,IC50 (Human betaherpesvirus 5): 0.15 nM; IC50 (Human alphaherpesvirus 1; Human alphaherpesvirus 1): 1.2 nM; IC50 (Human alphaherpesvirus 2; Human alphaherpesvirus 2): 1.2 nM; IC50 (Human alphaherpesvirus 3): 0.11 nM
Nc1nc(N)n(CCOCP(=O)(O)O)c(=O)c1-c1ccccc1,0.3,1.2,0.3,,,IC50 (Human betaherpesvirus 5): 0.15 nM; IC50 (Human alphaherpesvirus 1; Human alphaherpesvirus 1): 1.2 nM; IC50 (Human alphaherpesvirus 2; Human alphaherpesvirus 2): 1.2 nM; IC50 (Human alphaherpesvirus 3): 0.15 nM
C=CCc1c(N)nc(N)n(CCOCP(=O)(O)O)c1=O,0.3,1.2,0.3,,,IC50 (Human alphaherpesvirus 1; Human alphaherpesvirus 1): 1.2 nM; IC50 (Human alphaherpesvirus 2; Human alphaherpesvirus 2): 0.77 nM; IC50 (Human alphaherpesvirus 3): 0.15 nM
C=CCc1c(N)nc(N)nc1OCCOCP(=O)(O)O,0.79,1.2,0.3,,,IC50 (Human betaherpesvirus 5): 0.15 nM; IC50 (Human alphaherpesvirus 1; Human alphaherpesvirus 1): 1.2 nM; IC50 (Human alphaherpesvirus 2; Human alphaherpesvirus 2): 1.2 nM; IC50 (Human alphaherpesvirus 3): 0.15 nM
Nc1nc(N)n(CCOCP(=O)(O)O)c(=O)c1CC(=O)O,0.3,1.2,0.3,,,IC50 (Human betaherpesvirus 5): 0.15 nM; IC50 (Human alphaherpesvirus 1; Human alphaherpesvirus 1): 1.2 nM; IC50 (Human alphaherpesvirus 2; Human alphaherpesvirus 2): 1.2 nM; IC50 (Human alphaherpesvirus 3): 0.15 nM
Nc1nc(N)n(CCOCP(=O)(O)O)c(=O)c1Cc1ccccc1,0.3,1.2,0.3,,,IC50 (Human betaherpesvirus 5): 0.15 nM; IC50 (Human alphaherpesvirus 1; Human alphaherpesvirus 1): 1.2 nM; IC50 (Human alphaherpesvirus 2; Human alphaherpesvirus 2): 1.2 nM; IC50 (Human alphaherpesvirus 3): 0.15 nM
Nc1nc(N)c(-c2ccccc2)c(OCCOCP(=O)(O)O)n1,0.3,1.2,0.3,,,IC50 (Human betaherpesvirus 5): 0.15 nM; IC50 (Human alphaherpesvirus 1; Human alphaherpesvirus 1): 1.2 nM; IC50 (Human alphaherpesvirus 2; Human alphaherpesvirus 2): 1.2 nM; IC50 (Human alphaherpesvirus 3): 0.15 nM
Nc1nc(N)c(CC(=O)O)c(OCCOCP(=O)(O)O)n1,0.3,1.2,0.3,,,IC50 (Human betaherpesvirus 5): 0.15 nM; IC50 (Human alphaherpesvirus 1; Human alphaherpesvirus 1): 1.2 nM; IC50 (Human alphaherpesvirus 2; Human alphaherpesvirus 2): 1.2 nM; IC50 (Human alphaherpesvirus 3): 0.15 nM
Nc1nc(NC2CC2)c2ncn(CCOCP(=O)(O)O)c2n1,,,,28000,,
CCOC(=O)/C=C/[C@H](CCC(N)=O)NC(=O)Cn1cccc(NC(=O)OCc2ccccc2)c1=O,,,,,10000,
CN(C)c1cc(=O)n(CCOCP(=O)(O)O)c(N)n1,0.342,,,,,
CCOC(=O)/C=C/[C@H](C[C@@H]1CCNC1=O)NC(=O)C1=Cc2ccccc2OC1,,,,,1190,
CCOC(=O)/C=C/[C@H](C[C@@H]1CCNC1=O)NC(=O)C1=Cc2cc(Cl)ccc2OC1,,,,,160,
CCOC(=O)/C=C/[C@H](C[C@@H]1CCNC1=O)NC(=O)c1cc(-c2ccccc2)oc1C,,,,,1940,
CCOC(=O)/C=C/[C@H](CCC(N)=O)NC(=O)[C@H](Cc1ccccc1)n1cccc(NC(C)=O)c1=O,,,,,888,
CCOC(=O)/C=C/[C@H](C[C@@H]1CCNC1=O)NC(=O)[C@H](Cc1ccccc1)n1cccc(NC(=O)OCc2ccccc2)c1=O,,,,,3,
CC(C)OP(=O)(COCCSc1cc(N)nc(N)n1)OC(C)C,0.143,,,,,IC50 (Human alphaherpesvirus 1; Human alphaherpesvirus 1): 1.1 nM; IC50 (Human alphaherpesvirus 2; Human alphaherpesvirus 2): 1.1 nM; IC50 (Human alphaherpesvirus 3): 0.137 nM
CCOC(=O)/C=C/[C@H](C[C@@H]1CCNC1=O)NC(=O)C1=Cc2cc(Br)ccc2OC1,,,,,180,
Nc1nc(N)c(C2CC2)c(OCCOCP(=O)(O)O)n1,0.3,1.2,0.3,,,IC50 (Human betaherpesvirus 5): 1.2 nM; IC50 (Human alphaherpesvirus 1; Human alphaherpesvirus 1): 1.2 nM; IC50 (Human alphaherpesvirus 2; Human alphaherpesvirus 2): 1.2 nM; IC50 (Human alphaherpesvirus 3): 1.2 nM
Nc1nc(N)n(CCOCP(=O)(O)O)c(=O)c1C1CC1,0.3,1.2,0.3,,,IC50 (Human betaherpesvirus 5): 0.15 nM; IC50 (Human alphaherpesvirus 1; Human alphaherpesvirus 1): 1.2 nM; IC50 (Human alphaherpesvirus 2; Human alphaherpesvirus 2): 0.12 nM
N#CCc1c(N)nc(N)n(CCOCP(=O)(O)O)c1=O,0.3,1.2,0.3,,,IC50 (Human betaherpesvirus 5): 0.15 nM; IC50 (Human alphaherpesvirus 1; Human alphaherpesvirus 1): 1.2 nM; IC50 (Human alphaherpesvirus 2; Human alphaherpesvirus 2): 1.2 nM; IC50 (Human alphaherpesvirus 3): 0.084 nM
Cc1c(N)nc(N)n(CCOCP(=O)(O)O)c1=O,0.3,1.2,0.3,,,IC50 (Human alphaherpesvirus 1; Human alphaherpesvirus 1): 1.2 nM; IC50 (Human alphaherpesvirus 2; Human alphaherpesvirus 2): 0.12 nM
CCOC(=O)/C=C/[C@H](CCC(N)=O)NC(=O)[C@H](CC1CCCCC1)n1cccc(NC(=O)OCc2ccccc2)c1=O,,,,,178,
CCOC(=O)/C=C/[C@H](CCC(N)=O)NC(=O)[C@H](Cc1ccccc1)n1cccc(NC(=O)C(C)(C)C)c1=O,,,,,518,
CCOC(=O)/C=C/[C@H](CCC(N)=O)NC(=O)[C@H](Cc1ccccc1)n1cccc(NC(=O)C2SCCS2)c1=O,,,,,104,
CCOC(=O)/C=C/[C@H](CCC(N)=O)NC(=O)[C@H](Cc1ccc(F)c(F)c1)n1cccc(NC(=O)OCc2ccccc2)c1=O,,,,,3,

Compound,IC50 [1] [nM],IC50 (Vaccinia virus) [nM],IC50 [2] [nM],IC50 (Cowpox virus) [nM],IC50 (Human rhinovirus sp.) [nM],further results
CCOC(=O)/C=C/[C@H](C[C@H]1CCNC1=O)NC(=O)[C@H](Cc1ccccc1)n1cccc(NC(=O)OCc2ccccc2)c1=O,,,,,469,
CCOC(=O)/C=C/[C@H](CCC(N)=O)NC(=O)[C@H](Cc1ccc(F)cc1)n1cccc(NC(=O)OCc2ccccc2)c1=O,,,,,14,
CCOC(=O)/C=C/[C@H](CCC(N)=O)NC(=O)[C@H](Cc1ccccc1)n1cccc(NC(=O)c2cc(Cl)on2)c1=O,,,,,240,
CCOC(=O)/C=C/[C@H](CCC(N)=O)NC(=O)[C@H](Cc1ccccc1)n1cccc(NC(=O)c2cc(C)on2)c1=O,,,,,16,
C=CCNc1nc(N)nc2c1ncn2CCOCP(=O)(O)O,,25000,,115000,,
CCOC(=O)C(C)NP1(=O)CO[C@@H](Cn2ccc(N)nc2=O)CO1 (some centres undefined),,15000,,26000,,
CC(C)OC(=O)C(C)NP(=O)(COCCn1cnc2c(NC3CC3)nc(N)nc21)Oc1ccccc1 (centres undefined),,,,2600,,
NC1c2[nH]cnc2N=CN1C[C@@H](CO)OCP(=O)(O)O (some centres undefined),,,,330000,,
CN(C)c1nc(N)nc2c1ncn2CCOCP(=O)(O)O,,35000,,53000,,
Nc1nc(NCC(F)(F)F)c2ncn(CCOCP(=O)(O)O)c2n1,,42000,,270000,,
CCOC(=O)/C=C/[C@H](C[C@@H]1CCNC1=O)NC(=O)/C=C/c1ccc2c(c1)OCO2,,,,,1810,
Nc1nc(O)cc(OCCOCP(=O)(O)O)n1,30.2,0.18,,,,IC50 (Human betaherpesvirus 5): 0.19 nM; IC50 (Human alphaherpesvirus 1): 0.025 nM; IC50 (Human alphaherpesvirus 1; Human alphaherpesvirus 1): 0.0362 nM; IC50 (Human alphaherpesvirus 2): 0.033 nM; IC50 (Human alphaherpesvirus 2; Human alphaherpesvirus 2): 0.0362 nM
CCCCOC(=O)C[C@H](C)NP(=O)(COCCn1cnc2c(N)ncnc21)N[C@@H](C)C(=O)OCCCC (some centres undefined),,4400,,10000,,
CC(C)OC(=O)C(C)NP(=O)(CO[C@H](C)Cn1cnc2c(N)ncnc21)Oc1ccccc1 (some centres undefined),,,,98900,,
Cc1cc(OCCOCP(=O)(O)O)nc(N)n1,0.433,,,,,
CCOC(=O)/C=C/[C@H](C[C@@H]1CCNC1=O)NC(=O)/C=C/c1ccc(C)c(Br)c1,,,,,1290,
CCOC(=O)/C=C/[C@H](C[C@@H]1CCNC1=O)NC(=O)c1ccc2ccccc2c1,,,,,150,
CC(C)(C)C(=O)OCOP(=O)(COCCn1cnc2c(N)ncnc21)OCOC(=O)C(C)(C)C [ADEFOVIR DIPIVOXIL],,5100,,13000,,
CCCCCCCCCCCCCCCCOCCCOP(=O)(O)CO[C@H](CO)Cn1ccc(N)nc1=O [BRINCIDOFOVIR],,,,600,,
O=c1[nH]cnc2c1ncn2[C@H]1CC[C@@H](CO)O1 [DIDANOSINE],,423000,4000,423000,,
O=c1[nH]c(=O)n([C@@H]2O[C@H](CO)[C@@H](O)[C@@H]2F)cc1I [FIALURIDINE],,,,240,,
O=c1[nH]c(=O)n([C@H]2C[C@H](O)[C@@H](CO)O2)cc1I [IDOXURIDINE],,6000,,2000,,
COc1c(C)c2c(c(O)c1C/C=C(\C)CCC(=O)O)C(=O)OC2 [MYCOPHENOLIC ACID],,,,3200,,
Cc1cn([C@H]2C=C[C@@H](CO)O2)c(=O)[nH]c1=O [STAVUDINE],,446000,,446000,,
C[C@H](Cn1cnc2c(N)ncnc21)OCP(=O)(O)O [TENOFOVIR ANHYDROUS],,300000,7200,300000,,
Cc1cn([C@H]2C[C@H](N=[N+]=[N-])[C@@H](CO)O2)c(=O)[nH]c1=O [ZIDOVUDINE],5,,5,,,
